Columns and labels:
Assay type in all cases: in vivo
corn = assay: Test Example 5: effect on crop by foliage application, plastic box (symbol c); conditions: 320 g/ha, 3 weeks after application
Outline: (§1)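 Plants were raised from seed in a greenhouse (25° C. to 30° C.) after sowing in a plastic box of sterilized diluvial soil.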

Alopecurus myosuroides = assay: Test Example 5: herbicidal effect by foliage application, plastic box (symbol J); conditions: 320 g/ha, 3 weeks after application
Outline: (§2)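 Sowing in sterilized diluvial soil, 14 days' greenhouse growth at 25° C. to 30° C., then uniform small-sprayer foliar application of aqueous emulsion dilution; plants scored three weeks afterwards.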

beet = assay: Test Example 5: effect on crop by foliage application, plastic box (symbol f); conditions: 320 g/ha, 3 weeks after application
Outline: as §1

rice plant = assay: Test Example 5: effect on crop by foliage application, plastic box (symbol b); conditions: 320 g/ha, 3 weeks after application
Outline: as §1

[1] = system: directly sowed rice plant; assay: Test Example 3: effect on crop by foliage application, Wagner pot (symbol b); conditions: application herbicide amount 320 g/ha
Outline: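 Steps: fill a 1/10000-are Wagner pot with alluvial soil; add water and mix to submerge at 0.1–0.5 cm depth; sow rice plus Echinochloa crus-galli var. crus-galli, Leptochloa chinensis and Cyperus difformis; grow in a 25–30 °C greenhouse.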

Amaranthus retroflexus = assay: Test Example 5: herbicidal effect by foliage application, plastic box (symbol N); conditions: 320 g/ha, 3 weeks after application
Outline: as §2

[2] = system: Echinochloa oryzacola Vasing.; assay: Test Example 1: herbicidal activity, application before weed generation in submerged conditions (symbol A); conditions: application herbicide amount 320 g/ha
Outline: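 Scores run 0 to 5 by herbicidal ratio, with 5 meaning 90% or more and 0 meaning 5% or lower, read 3 weeks after treatment. Compound was applied as a diluted emulsion to the water surface of submerged alluvial-soil pots on the day weed seeds were sown.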

transplanted rice plant = assay: Test Example 1: effect on crop, application before weed generation in submerged conditions (symbol a); conditions: application herbicide amount 320 g/ha
Outline: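 Alluvial soil pots flooded to 4 cm water, sown with Echinochloa oryzacola, Scirpus juncoides and Monochoria vaginalis, then transplanted with 2.5 leaf stage rice seedlings; pre-emergence application. Greenhouse 25° C. to 30° C.; scored 0–5 by herbicidal ratio 3 weeks after application.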

wheat [3] = assay: Test Example 5: effect on crop by foliage application, plastic box (symbol e); conditions: 320 g/ha, 3 weeks after application
Outline: as §1

wheat [4] = assay: Test Example 4: effect on crop by soil treatment (symbol e); conditions: application herbicide amount 320 g/ha
Outline: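 Crop seeds, among them rice, wheat, beet and rapeseed, were sown in sterilized diluvial soil and covered with about 1.5 cm of soil. Boxes were kept in a greenhouse at 25° C. to 30° C. for plant growth.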

[5] = system: Echinochloa crus-galli var. crus-galli; assay: Test Example 3: herbicidal effect by foliage application, Wagner pot (symbol H); conditions: application herbicide amount 320 g/ha
Outline: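 The compound, formulated as an emulsion and diluted with water to a predetermined rate, is applied uniformly to leaves of two-week-old seedlings growing in submerged alluvial soil at 25–30 °C. Rice is included. Each plant is assessed 3 weeks later using defined criteria.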

Scirpus juncoides = assay: Test Example 2: herbicidal activity, application during weed generation in submerged conditions (symbol B); conditions: Table 23; application herbicide amount 320 g/ha; grade 0-5 by criteria of Test Example 1
Outline: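 Treatment timing was the one- to two-leaf stage, with diluted emulsifiable compound dropped onto the paddy water (depth 4 cm) over alluvial soil. All three species grew from a mixed sowing in a 25° C. to 30° C. greenhouse. Injury was judged by eye 3 weeks on.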

Stellaria media = assay: Test Example 5: herbicidal effect by foliage application, plastic box (symbol P); conditions: 320 g/ha, 3 weeks after application
Outline: as §2

SMILES | c: corn, effect on crop grade (corn) | J: Alopecurus myosuroides, herbicidal effect grade (Alopecurus myosuroides) | f: beet, effect on crop grade (beet) | b: directly sowed rice plant, effect on crop grade (rice plant) | effect on crop b (directly sowed rice plant), grade 0-5 [1] | N: Amaranthus retroflexus, herbicidal effect grade (Amaranthus retroflexus) | Herbicidal effect grade, A: Echinochloa oryzacola Vasing. [2] | Effect grade on crop, a: transplanted rice plant (transplanted rice plant) | e: wheat, effect on crop grade (wheat [3]) | e (wheat) effect on crop grade (wheat [4]) | herbicidal effect on H (Echinochloa crus-galli var. crus-galli), grade 0-5 [5] | Herbicidal effect grade, B: Scirpus juncoides (Scirpus juncoides) | P: Stellaria media, herbicidal effect grade (Stellaria media)
COCC(CC1CC(O)=C(c2c(C)cc(C)cc2C)C1=O)=NOC (stereo not drawn) [1-040] | 3 (Herbicidal ratio of 40% or higher and lower than 70%) | 5 (Herbicidal ratio of 90% or more (almost completely withered)) | 0 (Herbicidal ratio of 5% or lower (almost no effect)) | 5 (Herbicidal ratio of 90% or more (almost completely withered)) | 5 (Herbicidal ratio of 90% or more (almost completely withered)) | 0 (Herbicidal ratio of 5% or lower (almost no effect)) | 3 (Herbicidal ratio of 40% or higher and lower than 70%) | 4 (Herbicidal ratio of 70% or higher and lower than 90%) | 0 (Herbicidal ratio of 5% or lower (almost no effect)) | 0 (Herbicidal ratio of 5% or lower (almost no effect)) | 5 (Herbicidal ratio of 90% or more (almost completely withered)) | 0 (Herbicidal ratio of 5% or lower (almost no effect)) | 0 (Herbicidal ratio of 5% or lower (almost no effect))
COCCON=C(C)CC1CC(O)=C(c2c(C)cc(C)cc2C)C1=O (stereo not drawn) [1-041] | 5 (Herbicidal ratio of 90% or more (almost completely withered)) | 5 (Herbicidal ratio of 90% or more (almost completely withered)) | 1 (Herbicidal ratio of 5% or higher and lower than 20%) | 5 (Herbicidal ratio of 90% or more (almost completely withered)) | 5 (Herbicidal ratio of 90% or more (almost completely withered)) | 3 (Herbicidal ratio of 40% or higher and lower than 70%) | 5 (Herbicidal ratio of 90% or more (almost completely withered)) | 5 (Herbicidal ratio of 90% or more (almost completely withered)) | 5 (Herbicidal ratio of 90% or more (almost completely withered)) | 4 (Herbicidal ratio of 70% or higher and lower than 90%) | 5 (Herbicidal ratio of 90% or more (almost completely withered)) | 0 (Herbicidal ratio of 5% or lower (almost no effect)) | 3 (Herbicidal ratio of 40% or higher and lower than 70%)
CON=C(C)CC1CC(OC(=O)C(C)Cl)=C(c2c(C)cc(C)cc2C)C1=O (stereo not drawn) [1-042] | 4 (Herbicidal ratio of 70% or higher and lower than 90%) | 5 (Herbicidal ratio of 90% or more (almost completely withered)) | 1 (Herbicidal ratio of 5% or higher and lower than 20%) | 5 (Herbicidal ratio of 90% or more (almost completely withered)) | 5 (Herbicidal ratio of 90% or more (almost completely withered)) | 0 (Herbicidal ratio of 5% or lower (almost no effect)) | 0 (Herbicidal ratio of 5% or lower (almost no effect)) | 5 (Herbicidal ratio of 90% or more (almost completely withered)) | 5 (Herbicidal ratio of 90% or more (almost completely withered)) | 1 (Herbicidal ratio of 5% or higher and lower than 20%) | 5 (Herbicidal ratio of 90% or more (almost completely withered)) | 4 (Herbicidal ratio of 70% or higher and lower than 90%) | 0 (Herbicidal ratio of 5% or lower (almost no effect))
CON=C(C)CC1CC(OC(=O)COc2ccccc2)=C(c2c(C)cc(C)cc2C)C1=O (stereo not drawn) [1-043] | 5 (Herbicidal ratio of 90% or more (almost completely withered)) | 5 (Herbicidal ratio of 90% or more (almost completely withered)) | 3 (Herbicidal ratio of 40% or higher and lower than 70%) | 5 (Herbicidal ratio of 90% or more (almost completely withered)) | 5 (Herbicidal ratio of 90% or more (almost completely withered)) | 3 (Herbicidal ratio of 40% or higher and lower than 70%) | 5 (Herbicidal ratio of 90% or more (almost completely withered)) | 5 (Herbicidal ratio of 90% or more (almost completely withered)) | 5 (Herbicidal ratio of 90% or more (almost completely withered)) | 4 (Herbicidal ratio of 70% or higher and lower than 90%) | 5 (Herbicidal ratio of 90% or more (almost completely withered)) | 5 (Herbicidal ratio of 90% or more (almost completely withered)) | 4 (Herbicidal ratio of 70% or higher and lower than 90%)
CON=C(C)CC1CC(OC(=O)COc2ccc(Cl)cc2)=C(c2c(C)cc(C)cc2C)C1=O (stereo not drawn) [1-044] | 4 (Herbicidal ratio of 70% or higher and lower than 90%) | 5 (Herbicidal ratio of 90% or more (almost completely withered)) | 2 (Herbicidal ratio of 20% or higher and lower than 40%) | 5 (Herbicidal ratio of 90% or more (almost completely withered)) | 5 (Herbicidal ratio of 90% or more (almost completely withered)) | 2 (Herbicidal ratio of 20% or higher and lower than 40%) | 5 (Herbicidal ratio of 90% or more (almost completely withered)) | 5 (Herbicidal ratio of 90% or more (almost completely withered)) | 5 (Herbicidal ratio of 90% or more (almost completely withered)) | 2 (Herbicidal ratio of 20% or higher and lower than 40%) | 5 (Herbicidal ratio of 90% or more (almost completely withered)) | 4 (Herbicidal ratio of 70% or higher and lower than 90%) | 0 (Herbicidal ratio of 5% or lower (almost no effect))
CON=C(CC1CC(O)=C(c2c(C)cc(C)cc2C)C1=O)c1ccccn1 (stereo not drawn) [1-045] | 3 (Herbicidal ratio of 40% or higher and lower than 70%) | 5 (Herbicidal ratio of 90% or more (almost completely withered)) | 0 (Herbicidal ratio of 5% or lower (almost no effect)) | 5 (Herbicidal ratio of 90% or more (almost completely withered)) | 3 (Herbicidal ratio of 40% or higher and lower than 70%) | 0 (Herbicidal ratio of 5% or lower (almost no effect)) | 5 (Herbicidal ratio of 90% or more (almost completely withered)) | 3 (Herbicidal ratio of 40% or higher and lower than 70%) | 0 (Herbicidal ratio of 5% or lower (almost no effect)) | 0 (Herbicidal ratio of 5% or lower (almost no effect)) | 5 (Herbicidal ratio of 90% or more (almost completely withered)) | 0 (Herbicidal ratio of 5% or lower (almost no effect)) | 0 (Herbicidal ratio of 5% or lower (almost no effect))

Reference: patent US11000033B2, “Ketone or oxime compound, and herbicide” (NISSAN CHEMICAL CORPORATION, priority 2014, dated 2021)
